Experimental data taken from US20080176907A1, “NOS Inhibitors For Treatment Of Motor Deficit Disorders” (Northwestern University, priority 2006, published 2008).

Key:
[1] = effect of maternal administration on blood pressure and heart rate in E22 rabbit dams; type: in vivo, New Zealand white rabbit
Description: Because of the importance of eNOS to the regulation of cardiovascular activity, the effect of maternal administration of 4 and 5 on blood pressure in 22 day-gestation (E22) New Zealand white rabbit dams was determined. There was no effect on heart rate or on systolic or diastolic blood pressure by treatment with 4 or 5.

[2] = tested on: hypoxia-ischemia of rabbit fetuses; test: uterine ischemia, global hypoxia-ischemia of rabbit fetuses, neurobehavioral examination of P1 kits; details: for number of normal postnatal P1 kits: compared to saline-treated dams; for protection against HI-fetal brain injury: comparison with 7-NI, p<0.05 Fisher's Exact Test; for permeability to the fetal brain: maternal administration
[3] = tested on: total constitutive NOS activity (both nNOS and eNOS) in fetal brain homogenates; test: NOS activity and NOx levels in fetal brain after maternal administration; type: in vivo; details: E22 rabbit dams
Text: The NOS activity assay in fetal brain homogenates assessed total constitutive NOS activity (i.e., both nNOS and eNOS). […] Therefore changes in NOS activity should correspond to changes in nNOS activity. […] The corresponding decrease in the NO concentration also indicated strong NOS inhibition had occurred.

[4] = Paudler and Blewitt, 1966; cited from earlier work
[5] = tested on: whole body ischemia; details: in vivo; cited from earlier work
[6] = molecular target: iNOS (Mus musculus, UniProt P29477); test: biochemical
[7] = molecular target: nNOS (Rattus norvegicus, UniProt P29476); details: read-out: Ki nNOS

iNOS, sequence (P29477 whole entry): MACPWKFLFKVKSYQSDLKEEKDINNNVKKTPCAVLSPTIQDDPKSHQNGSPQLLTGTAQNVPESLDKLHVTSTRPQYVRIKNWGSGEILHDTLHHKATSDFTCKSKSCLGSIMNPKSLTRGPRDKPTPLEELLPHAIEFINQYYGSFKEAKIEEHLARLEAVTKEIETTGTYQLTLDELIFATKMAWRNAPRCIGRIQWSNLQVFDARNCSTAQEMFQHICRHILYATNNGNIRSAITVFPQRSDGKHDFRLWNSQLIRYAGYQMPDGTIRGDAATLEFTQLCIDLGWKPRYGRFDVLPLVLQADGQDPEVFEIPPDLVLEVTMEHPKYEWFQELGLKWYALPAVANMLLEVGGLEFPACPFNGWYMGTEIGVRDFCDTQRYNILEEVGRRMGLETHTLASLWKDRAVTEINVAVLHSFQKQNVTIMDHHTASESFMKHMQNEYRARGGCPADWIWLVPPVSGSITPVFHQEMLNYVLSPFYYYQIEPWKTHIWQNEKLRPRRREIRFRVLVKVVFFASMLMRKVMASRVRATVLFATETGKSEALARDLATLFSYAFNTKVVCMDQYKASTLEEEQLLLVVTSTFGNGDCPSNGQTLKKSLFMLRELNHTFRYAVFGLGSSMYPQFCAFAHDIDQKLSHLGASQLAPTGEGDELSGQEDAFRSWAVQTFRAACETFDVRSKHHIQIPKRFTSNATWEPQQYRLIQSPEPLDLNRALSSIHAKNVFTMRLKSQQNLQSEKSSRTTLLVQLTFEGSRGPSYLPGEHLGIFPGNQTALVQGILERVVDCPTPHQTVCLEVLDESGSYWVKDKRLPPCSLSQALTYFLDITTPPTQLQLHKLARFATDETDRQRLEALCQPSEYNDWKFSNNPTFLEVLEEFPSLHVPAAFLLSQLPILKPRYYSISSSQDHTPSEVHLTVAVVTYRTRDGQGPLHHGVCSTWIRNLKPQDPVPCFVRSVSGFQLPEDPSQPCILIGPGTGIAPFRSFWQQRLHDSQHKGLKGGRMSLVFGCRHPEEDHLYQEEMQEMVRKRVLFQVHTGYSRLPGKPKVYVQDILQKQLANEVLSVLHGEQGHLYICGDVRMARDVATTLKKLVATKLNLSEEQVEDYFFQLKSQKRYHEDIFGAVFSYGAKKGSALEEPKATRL

With `Cc1cc(N)nc(C[C@H]2CNC[C@H]2NCCNCc2ccc(Cl)cc2)c1` (racemic) [(±)-4] the “effect on heart rate” value [1] was “no effect”, the “effect on systolic or diastolic blood pressure” value [1] was “no effect” and the “incidence of fetal death (dead/total fetuses)” value ([2]; 0/49 is stated for either 4 or 5) was 0/49. The “Normal (number of kits)” value ([2]; Dose 75 ki × 2, Age 22) was 9, the “Severe (number of kits)” value ([2]; Dose 75 ki × 2, Age 22) was 2 and the “Severe (number of kits)” value ([2]; Dose 75 ki × 2, Age 25) was 2. For the same molecule, the “Normal (number of kits)” value ([2]; Dose 75 ki × 2, Age 29) was 10, the “number of normal postnatal P1 kits” value [2] was “substantially larger number” and the “protection against HI-fetal brain injury” value [2] was “superior to 7-NI”. For the same molecule, the fetal/neonatal deaths ([2]; inhibitor 30 min prior to and immediately after uterine ischemia) was “no deaths” and the “permeability to the fetal brain” value [2] was “permeable”.

In the case of `Cc1cc(N)nc(C[C@H]2CNC[C@H]2NCCNCCc2cccc(F)c2)c1` (racemic) [(±)-5], the “NO concentration (NOx) in fetal brain” value ([3]; after maternal treatment) is reported as “decrease”, the “NOS activity in fetal brain” value ([3]; shortly after acute maternal treatment) is reported as “NOS inhibition was observed” and the “effect on heart rate” value [1] is reported as “no effect”. For the same molecule, the “effect on systolic or diastolic blood pressure” value [1] was “no effect”, the “effect when administered post-ischemia” value ([2]; administered post-ischemia) was “no effect” and the “number of normal postnatal P1 kits” value [2] was “substantially larger number”. The “protection against HI-fetal brain injury” value [2] was “superior to 7-NI”, the “permeability to the fetal brain” value [2] was “permeable” and the fetal/neonatal deaths ([2]; rabbit, in vivo) was “no deaths”. For the same molecule, the “incidence of fetal death (dead/total fetuses)” value ([2]; rabbit, in vivo) was 0/49.

In the case of `Cc1cc(N)nc(C[C@H]2CNC[C@H]2NCCNCCc2ccccc2)c1` (relative stereo) [JI-6], the “Normal (number of kits)” value ([2]; Dose 200 ki × 2, Age 22) is reported as 9.

In the case of `Cc1cc(C)nc(N)c1` [2-amino-4,6-dimethylpyridine], the pKa [4] is given as 7.12.

With `O=[N+]([O-])c1cccc2cn[nH]c12` [7-NI, 7-nitroindazole, reference compound] the “incidence of fetal death (dead/total fetuses)” value ([2]; rabbit, in vivo) was 10/38 and the “incidence of fetal death (stillborn)” value ([2]; rabbit, in vivo) was 26%.

In the case of `FC(F)(F)c1ccccc1-n1ccnc1` [TRIM], the “outcome following whole body ischemia” value [5] is given as “worse outcome”.

Molecule `N=C(NCCC[C@H](N)C(=O)N[C@H]1CN[C@H](C(N)=O)C1)N[N+](=O)[O-]` [compound 3] has a Ki [6] of 29 µM and a Ki [7] of 0.1 µM.

With `N=C(NCCC[C@H](N)C(=O)O)N[N+](=O)[O-]` [εNNA, L-N^ω-nitroarginine] the Ki [6] was 4.55 µM.
